One block for each compound: values may come before it. Numbered stars: 1 amine (or outer) side, 2 acyl side, 3 side chain; on linkers, the order of the positions; unused ones are H or OH. Bridge positions count the residues as written; N and C are the ends. Square brackets hold non-standard residues; d marks the D form. Peptide text beside a SMILES is read from it. I, II: the chains in the order shown. Actinocin(9to1) = Cc1c2oc3c(C)ccc(C(=O)[*:1])c3nc-2c(C(=O)[*:2])c(N)c1=O; NMeV = CN[C@H](C(=O)O)C(C)C; Sar = CNCC(=O)O
Legend:
U2OS = assay: Inhibition of cell proliferation of human U2OS cells over-expressing DDR1
[1] = biological target: T1, Discoidin domain-containing receptor 2 (Homo sapiens, UniProt Q16832); assay: Inhibition of human DDR2 expressed in HEK293 cells assessed as reduction in collagen-1-induced DDR2 tyrosine phosphorylation pre-incubated for 30 mins by immunoblotting method; type: cell-based
T1 sequence (Q16832 whole entry): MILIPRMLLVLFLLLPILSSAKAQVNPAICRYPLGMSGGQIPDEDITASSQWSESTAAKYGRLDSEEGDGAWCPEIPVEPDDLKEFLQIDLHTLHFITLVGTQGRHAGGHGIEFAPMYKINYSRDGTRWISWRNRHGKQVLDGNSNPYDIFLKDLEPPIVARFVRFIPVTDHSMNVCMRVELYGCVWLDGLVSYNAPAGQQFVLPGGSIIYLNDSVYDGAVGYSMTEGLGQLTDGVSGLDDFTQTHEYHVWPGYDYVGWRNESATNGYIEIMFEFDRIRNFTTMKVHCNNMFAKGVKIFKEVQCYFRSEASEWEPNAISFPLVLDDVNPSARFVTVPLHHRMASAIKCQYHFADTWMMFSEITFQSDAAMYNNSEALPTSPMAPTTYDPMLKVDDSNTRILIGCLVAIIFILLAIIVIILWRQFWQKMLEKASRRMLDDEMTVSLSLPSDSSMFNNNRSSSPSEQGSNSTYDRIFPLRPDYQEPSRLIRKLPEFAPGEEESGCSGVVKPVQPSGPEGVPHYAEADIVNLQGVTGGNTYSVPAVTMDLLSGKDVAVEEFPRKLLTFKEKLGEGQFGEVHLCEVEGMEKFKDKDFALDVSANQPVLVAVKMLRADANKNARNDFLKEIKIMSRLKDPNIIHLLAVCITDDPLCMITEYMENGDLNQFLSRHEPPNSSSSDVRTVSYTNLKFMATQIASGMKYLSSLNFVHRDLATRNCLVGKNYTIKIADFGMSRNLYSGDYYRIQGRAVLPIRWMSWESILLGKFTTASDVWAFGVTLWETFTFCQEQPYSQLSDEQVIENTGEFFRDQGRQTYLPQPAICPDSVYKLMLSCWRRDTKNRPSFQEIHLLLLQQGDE

[2] = biological target: T1, Discoidin domain-containing receptor 2; assay: Inhibition of human DDR2 expressed in HEK293 cells assessed as reduction in collagen-2-induced DDR2 phosphorylation; type: cell-based
[3] = biological target: T1, Discoidin domain-containing receptor 2; assay: Inhibition of recombinant activated DDR2 tyrosine kinase domain (unknown origin) using histone H2B peptide substrate and [32P]ATP incubated for 15 mins
[4] = biological target: T1, Discoidin domain-containing receptor 2; assay: Inhibition of recombinant non-activated DDR2 tyrosine kinase domain (unknown origin) using histone H2B peptide substrate and [32P]ATP incubated for 15 mins
[5] = biological target: T2, Epithelial discoidin domain-containing receptor 1 (Homo sapiens, UniProt Q08345); assay: Inhibition of human DDR1 kinase domain (601 to 913 residues) expressed in Sf9 cells by enzymatic kinase assay
T2 sequence (Q08345 whole entry, the tested form may be a part): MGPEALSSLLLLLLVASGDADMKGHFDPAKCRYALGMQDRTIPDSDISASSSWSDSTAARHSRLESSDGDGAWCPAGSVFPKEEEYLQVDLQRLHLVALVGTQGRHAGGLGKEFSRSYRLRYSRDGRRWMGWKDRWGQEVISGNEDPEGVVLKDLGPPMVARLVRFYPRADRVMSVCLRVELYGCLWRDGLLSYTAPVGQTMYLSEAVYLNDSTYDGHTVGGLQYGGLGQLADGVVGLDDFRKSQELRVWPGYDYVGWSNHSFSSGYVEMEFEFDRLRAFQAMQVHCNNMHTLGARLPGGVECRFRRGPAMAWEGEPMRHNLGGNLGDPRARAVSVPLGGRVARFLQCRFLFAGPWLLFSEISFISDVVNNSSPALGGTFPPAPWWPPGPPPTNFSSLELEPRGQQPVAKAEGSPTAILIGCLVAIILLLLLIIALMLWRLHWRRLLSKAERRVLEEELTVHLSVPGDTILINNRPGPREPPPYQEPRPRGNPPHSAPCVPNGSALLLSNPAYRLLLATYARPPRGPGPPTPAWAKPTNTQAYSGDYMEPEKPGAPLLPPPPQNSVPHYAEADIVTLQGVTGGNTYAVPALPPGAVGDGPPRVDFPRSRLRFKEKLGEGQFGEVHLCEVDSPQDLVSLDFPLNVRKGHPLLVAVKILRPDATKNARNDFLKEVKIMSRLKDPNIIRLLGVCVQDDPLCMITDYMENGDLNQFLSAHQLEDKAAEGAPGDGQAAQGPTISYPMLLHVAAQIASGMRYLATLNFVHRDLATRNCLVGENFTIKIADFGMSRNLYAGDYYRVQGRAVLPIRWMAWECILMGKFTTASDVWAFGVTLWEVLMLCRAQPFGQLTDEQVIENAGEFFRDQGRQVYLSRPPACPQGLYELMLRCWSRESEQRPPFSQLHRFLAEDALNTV

[6] = biological target: T2, Epithelial discoidin domain-containing receptor 1; assay: Inhibition of human DDR1 in doxycycline-stimulated human U2OS cells assessed as inhibition of collagen-1-induced autophosphorylation incubated for 1 hr; type: cell-based
[7] = biological target: T1, Discoidin domain-containing receptor 2; assay: Binding affinity to DDR2 (unknown origin) by active-site dependent competition binding assay

IC50 (U2OS): 440 nM
SMILES: CCS(=O)(=O)c1ccc(Cl)cc1CNC(=O)c1ccc(CN2CCN(C)CC2)c(C(F)(F)F)c1

IC50 [1]: 9000 nM
SMILES: Cc1c2oc3c(C)ccc(C(=O)N[C@@H]4C(=O)N[C@H](C(C)C)C(=O)N5CCC[C@H]5C(=O)N(C)CC(=O)N(C)[C@@H](C(C)C)C(=O)O[C@@H]4C)c3nc-2c(C(=O)N[C@@H]2C(=O)N[C@H](C(C)C)C(=O)N3CCC[C@H]3C(=O)N(C)CC(=O)N(C)[C@@H](C(C)C)C(=O)O[C@@H]2C)c(N)c1=O [DACTINOMYCIN] (I: T[dV]P[Sar][NMeV] / II: T[dV]P[Sar][NMeV]; ester I:1-I:C, II:1-II:C; linker I:N-II:N via Actinocin(9to1))

IC50 [2]: 30 nM
SMILES: CNC(=O)c1cc(Oc2ccc(CNC(=O)Nc3cc(Cl)ccc3OC)cc2C)ccn1

SMILES: Cn1cc(C(F)(F)F)cc(NC(=O)NCc2ccc(Oc3ccnc4c3CNC(=O)N4)cc2)c1=O
IC50 [2]: 15 nM

IC50 [3]: 6 nM
IC50 [4]: 145 nM
SMILES: Oc1cccc(Nc2ccnc3cc(-c4cccc(CN5CCOCC5)c4)sc23)c1

IC50 [5]: 47 nM
IC50 [6]: 9 nM
SMILES: CCN1CCN(Cc2ccc(C(=O)Nc3ccc(C)c(NCc4cnc5[nH]ccc5c4OC)c3)cc2C(F)(F)F)CC1

Kd [7]: 0.6 nM
SMILES: CCc1ccc(C(=O)Nc2cc(CN3CCN(C)CC3)cc(C(F)(F)F)c2)cc1C#Cc1cnc2ccnn2c1
